Assays:
[1] = tested on: Total ATXN3 (tATXN3) protein; assay: Endogenous Total ATXN3 (tATXN3) Protein Assay (MSD immunoassay of cell lysates); format: cell-based; conditions: average IC50, total ATXN3 protein in cell lysate after 48 h with compound (Table 1)
How it was run: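 Cells in DMEM/10% FBS were plated at 10,000 per well onto 7-point, 3.16-fold compound dilutions in duplicate for 48 h at 37° C, then lysed. Total ATXN3 in lysates was measured by MSD sandwich immunoassay: mouse anti-ATXN3 capture, rabbit anti-ATXN3 detection, SULFO-TAG anti-rabbit. Average IC50 was reported in star bins.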

ATXN3 pre-mRNA = assay: RT-qPCR Assay to Quantify Exon 4 Skipping in ATXN3 pre-mRNA in Cells; format: cell-based; conditions: percent exon 4 skipping in ATXN3 pre-mRNA, RT-qPCR of cell lysates; average IC50
How it was run: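 Cells plated at 10,000/well onto a 7-point, 3.16-fold DMSO dilution series (duplicates), incubated 24 h at 37 °C, then lysed. Exon 4 skipping measured by one-step RT-qPCR (48 °C RT, 40 cycles); IC50 interpolated from dose-response fit of percent skipping.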

Row | IC50 [1] [nM] | IC50 (ATXN3 pre-mRNA) [nM] | SMILES
1 | 300 to 1000 | 300 to 1000 | N[C@@H]1CCCO[C@@H]1c1sc2c(NCc3cccs3)cc(Cl)nc2c1Br [Compound 15, 2-((2S,3R)-3-aminotetrahydro-2H-pyran-2-yl)-3-bromo-5-chloro-N-(thiophen-2-ylmethyl)thieno[3,2-b]pyridin-7-amine]
2 | > 1000 | > 1000 | N[C@@H]1CCCO[C@H]1c1sc2c(NCc3cccs3)cc(Cl)nc2c1Cl [Compound 16, 2-((2R,3R)-3-aminotetrahydro-2H-pyran-2-yl)-3,5-dichloro-N-(thiophen-2-ylmethyl)thieno[3,2-b]pyridin-7-amine]
3 | > 1000 | > 1000 | N[C@@H]1CCCO[C@@H]1c1sc2c(NCc3cccs3)cc(Cl)nc2c1Cl [Compound 17, 2-((2S,3R)-3-aminotetrahydro-2H-pyran-2-yl)-3,5-dichloro-N-(thiophen-2-ylmethyl)thieno[3,2-b]pyridin-7-amine]
4 | ≤ 30 | ≤ 30 | N[C@H]1CCCO[C@@H]1c1sc2c(NCc3cccs3)cc(Cl)nc2c1Cl [Compound 18, 2-[(2S,3S)-3-aminotetrahydropyran-2-yl]-3,5-dichloro-N-(2-thienylmethyl)thieno[3,2-b]pyridin-7-amine]
5 | 30 to 300 | 30 to 300 | N[C@H]1CCCO[C@H]1c1sc2c(NCc3cccs3)cc(Cl)nc2c1Cl [Compound 19, 2-((2R,3S)-3-aminotetrahydro-2H-pyran-2-yl)-3,5-dichloro-N-(thiophen-2-ylmethyl)thieno[3,2-b]pyridin-7-amine]
6 | 30 to 300 | 30 to 300 | N[C@H]1CCCC[C@@H]1c1cc2nc(Cl)cc(NCc3cccs3)c2s1 [Compound 21, 2-((1S,2S)-2-aminocyclohexyl)-5-chloro-N-(thiophen-2-ylmethyl)thieno[3,2-b]pyridin-7-amine]
7 | 300 to 1000 | 300 to 1000 | N[C@H]1CCCC[C@H]1c1cc2nc(Cl)cc(NCc3cccs3)c2s1 [Compound 22, 2-((1R,2S)-2-aminocyclohexyl)-5-chloro-N-(thiophen-2-ylmethyl)thieno[3,2-b]pyridin-7-amine]
8 | > 1000 | > 1000 | N[C@@H]1CCCC[C@H]1c1cc2nc(Cl)cc(NCc3cccs3)c2s1 [Compound 23, 2-((1R,2R)-2-aminocyclohexyl)-5-chloro-N-(thiophen-2-ylmethyl)thieno[3,2-b]pyridin-7-amine]
9 | > 1000 | > 1000 | N[C@H]1CCCC[C@]1(O)c1sc2c(NCc3cccs3)cc(Cl)nc2c1Cl [Compound 31, (1R,2S)-2-amino-1-(3,5-dichloro-7-((thiophen-2-ylmethyl)amino)thieno[3,2-b]pyridin-2-yl)cyclohexan-1-ol]
10 | 30 to 300 | 30 to 300 | N[C@H]1CCCC[C@]1(F)c1sc2c(NCc3cccs3)cc(Cl)nc2c1Cl [Compound 32, 2-((1R,2S)-2-amino-1-fluorocyclohexyl)-3,5-dichloro-N-(thiophen-2-ylmethyl)thieno[3,2-b]pyridin-7-amine]
11 | 30 to 300 | 30 to 300 | Cc1c([C@H]2OCCC[C@@H]2N)sc2c(NCc3ccccc3F)cc(Cl)nc12 [Compound 33, 2-((2S,3S)-3-aminotetrahydro-2H-pyran-2-yl)-5-chloro-N-(2-fluorobenzyl)-3-methylthieno[3,2-b]pyridin-7-amine]
12 | 300 to 1000 | 30 to 300 | N[C@H]1CCCC[C@]1(F)c1sc2c(NCc3ccccc3)cc(Cl)nc2c1Br [Compound 37, 2-((1R,2S)-2-amino-1-fluorocyclohexyl)-N-benzyl-3-bromo-5-chlorothieno[3,2-b]pyridin-7-amine]
13 | 30 to 300 | 30 to 300 | N[C@H]1CCCC[C@]1(F)c1sc2c(NCc3ccco3)cc(Cl)nc2c1Cl [Compound 38, 2-((1R,2S)-2-amino-1-fluorocyclohexyl)-3,5-dichloro-N-(furan-2-ylmethyl)thieno[3,2-b]pyridin-7-amine]
14 | 30 to 300 | 30 to 300 | Cc1c([C@@]2(F)CCCC[C@@H]2N)sc2c(NCc3ccco3)cc(Cl)nc12 [Compound 41, 2-((1R,2S)-2-amino-1-fluorocyclohexyl)-5-chloro-N-(furan-2-ylmethyl)-3-methylthieno[3,2-b]pyridin-7-amine]
15 | > 1000 | > 1000 | N[C@@H]1CCCO[C@H]1c1sc2c(NCc3cccs3)cc(Cl)nc2c1Br [Compound 49, 2-((2R,3R)-3-aminotetrahydro-2H-pyran-2-yl)-3-bromo-5-chloro-N-(thiophen-2-ylmethyl)thieno[3,2-b]pyridin-7-amine]
16 | 300 to 1000 | 30 to 300 | Cc1c([C@@H]2CCCC[C@@H]2N)sc2c(NCc3cccs3)cc(Cl)nc12 [Compound 50, 2-((1R,2S)-2-aminocyclohexyl)-5-chloro-3-methyl-N-(thiophen-2-ylmethyl)thieno[3,2-b]pyridin-7-amine]

Row | IC50 [1] [nM] | IC50 (ATXN3 pre-mRNA) [nM] | SMILES
17 | > 1000 | > 1000 | Cc1c([C@H]2CCCC[C@H]2N)sc2c(NCc3cccs3)cc(Cl)nc12 [Compound 51, 2-((1S,2R)-2-aminocyclohexyl)-5-chloro-3-methyl-N-(thiophen-2-ylmethyl)thieno[3,2-b]pyridin-7-amine]
18 | > 1000 | > 1000 | N[C@@H]1CCCC[C@@H]1c1sc2c(NCc3cccs3)cc(Cl)nc2c1Br [Compound 52, 2-((1S,2R)-2-aminocyclohexyl)-3-bromo-5-chloro-N-(thiophen-2-ylmethyl)thieno[3,2-b]pyridin-7-amine]
19 | 300 to 1000 | 300 to 1000 | N[C@H]1CCCC[C@H]1c1sc2c(NCc3cccs3)cc(Cl)nc2c1Br [Compound 53, 2-((1R,2S)-2-aminocyclohexyl)-3-bromo-5-chloro-N-(thiophen-2-ylmethyl)thieno[3,2-b]pyridin-7-amine]
20 | 30 to 300 | 30 to 300 | N[C@@H]1CCCC[C@H]1c1sc2c(NCc3cccs3)cc(Cl)nc2c1Br [Compound 54, 2-((1R,2R)-2-aminocyclohexyl)-3-bromo-5-chloro-N-(thiophen-2-ylmethyl)thieno[3,2-b]pyridin-7-amine]
21 | 30 to 300 | 30 to 300 | N[C@H]1CCCC[C@@H]1c1sc2c(NCc3cccs3)cc(Cl)nc2c1Br [Compound 55, 2-((1S,2S)-2-aminocyclohexyl)-3-bromo-5-chloro-N-(thiophen-2-ylmethyl)thieno[3,2-b]pyridin-7-amine]
22 | 300 to 1000 | 30 to 300 | N[C@H]1CCCO[C@@H]1c1sc2c(NCc3cccs3)cc(Cl)nc2c1Br [Compound 56, 2-((2S,3S)-3-aminotetrahydro-2H-pyran-2-yl)-3-bromo-5-chloro-N-(thiophen-2-ylmethyl)thieno[3,2-b]pyridin-7-amine]
23 | ≤ 30 | ≤ 30 | N[C@H]1CCCC[C@@H]1c1sc2c(NCc3cccs3)cc(Cl)nc2c1I [Compound 57, 2-((1S,2S)-2-aminocyclohexyl)-5-chloro-3-iodo-N-(thiophen-2-ylmethyl)thieno[3,2-b]pyridin-7-amine]
24 | > 1000 | > 1000 | N[C@@H]1CCCC[C@H]1c1sc2c(NCc3cccs3)cc(Cl)nc2c1I [Compound 58, 2-((1R,2R)-2-aminocyclohexyl)-5-chloro-3-iodo-N-(thiophen-2-ylmethyl)thieno[3,2-b]pyridin-7-amine]
25 | > 1000 | 300 to 1000 | Cc1c([C@@H]2CCCC[C@H]2N)sc2c(NCc3ccco3)nc(Cl)nc12 [Compound 59, 6-((1R,2R)-2-aminocyclohexyl)-2-chloro-N-(furan-2-ylmethyl)-7-methylthieno[3,2-d]pyrimidin-4-amine]
26 | ≤ 30 | ≤ 30 | Cc1c([C@H]2CCCC[C@@H]2N)sc2c(NCc3ccco3)nc(Cl)nc12 [Compound 60, 6-((1S,2S)-2-aminocyclohexyl)-2-chloro-N-(furan-2-ylmethyl)-7-methylthieno[3,2-d]pyrimidin-4-amine]
27 | > 1000 | > 1000 | Cc1c([C@@H]2OCCC[C@H]2N)sc2c(NCc3ccco3)nc(Cl)nc12 [Compound 61, 6-((2R,3R)-3-aminotetrahydro-2H-pyran-2-yl)-2-chloro-N-(furan-2-ylmethyl)-7-methylthieno[3,2-d]pyrimidin-4-amine]
28 | 30 to 300 | ≤ 30 | Cc1c([C@H]2OCCC[C@@H]2N)sc2c(NCc3ccco3)nc(Cl)nc12 [Compound 62, 6-((2S,3S)-3-aminotetrahydro-2H-pyran-2-yl)-2-chloro-N-(furan-2-ylmethyl)-7-methylthieno[3,2-d]pyrimidin-4-amine]
29 | 30 to 300 | 30 to 300 | Cc1c([C@H]2OCCC[C@@H]2N)sc2c(NCc3ccccc3)nc(Cl)nc12 [Compound 63, 6-((2S,3S)-3-aminotetrahydro-2H-pyran-2-yl)-N-benzyl-2-chloro-7-methylthieno[3,2-d]pyrimidin-4-amine]
30 | > 1000 | > 1000 | Cc1c([C@@H]2OCCC[C@H]2N)sc2c(NCc3ccccc3)nc(Cl)nc12 [Compound 64, 6-((2R,3R)-3-aminotetrahydro-2H-pyran-2-yl)-N-benzyl-2-chloro-7-methylthieno[3,2-d]pyrimidin-4-amine]
31 | ≤ 30 | ≤ 30 | N[C@H]1CCCC[C@@H]1c1sc2c(NCc3ccccc3)nc(Cl)nc2c1Br [Compound 65, 6-[(1S,2S)-2-aminocyclohexyl]-N-benzyl-7-bromo-2-chloro-thieno[3,2-d]pyrimidin-4-amine]
32 | > 1000 | > 1000 | N[C@@H]1CCCC[C@H]1c1sc2c(NCc3ccccc3)nc(Cl)nc2c1Br [Compound 66, 6-((1R,2R)-2-aminocyclohexyl)-N-benzyl-7-bromo-2-chlorothieno[3,2-d]pyrimidin-4-amine]
